Structures can show the parent of a compound that is named as a salt. Where two headings read alike, the source gives them in different places.
How the values were obtained:
SKOV-3 [1] = assay: cells; conditions: Homo sapiens, SK-OV-3, 96 h, read-out: Inhibition of H^3 Thymidine uptake (IC50 in nM)
Experimental: (§1) Quantification of cell proliferation and cell viability was determined by measuring the amount of radioactive [^3H-methyl]-thymidine incorporated into DNA.
(§2) Cell culture: For each cell line, culture was carried according to the ATCC Product Information Sheet provided. Cell lines were always freshly thawed prior to each experiment. For all experiments exponentially growing cells were harvested and centrifuged at 1100 rpm, the spent medium was aspirated and cell pellets were resuspended in fresh complete medium. Viable cells were enumerated by trypan blue exclusion using a hemacytometer.
(§3) Cells were then seeded in 96 well tissue culture plates in a total volume of 100 μL/well. A preliminary experiment should be performed to determine the most appropriate cell density for each individual cell line. Cells were allowed to attach and acclimate overnight.
(§4) Addition of test compounds: Each test compound was dissolved in DMSO at a final concentration of 2 mM. Each stock compound was then diluted in complete medium (1:100) to obtain a 20 μM working solution. The working solution was used for further serial dilutions to obtain concentrations of 200 nM, 20 nM, 2 nM, 0.2 nM and 0.02 nM. 100 μL of each dilution was added to the 100 μL cell cultures (3 replicates),. to give final test concentrations of 100 nM, 10 nM, 1 nM, 0.1 nM and 0.01 nM. Using this system of dilutions, the maximum concentration of DMSO to which the cells were exposed was 0.01% v/v. Therefore, 0.01% DMSO was added to control cells to which no test compounds was added. On each plate two positive controls were included: Adriamycin Hydrochloride and Rapamycin. For each positive control 3 concentrations were chosen in a range that achieved an LC50, this range is cell line specific and must be predetermined in a pilot experiment. Plates were incubated for 96 hours prior to harvesting. [^3H-methyl]-thymidine incorporation: After 80 hours incubation, 10 μL (0.5 μCi) of [^3H-methyl]-thymidine diluted in 1× HBSS was added and plates were incubated overnight.
(§5) Growth medium was removed from each well and 100 uL of Trypsin-EDTA was added. The plate was incubated at 37° C. until cells were trypsinized (check under microscope). The detached cells were harvested using a semiautomatic cell harvester. Filters were dried prior to addition to scintillation vials. two mL of scintillation fluid was automatically dispensed into each vial and counting was effected on program 1 (^3H, 1 min, DPM).
(§6) The average and standard error from the DPM counts of replicate samples were calculated.

OVCAR-3 [2] = assay: cells; conditions: Homo sapiens, OVCAR-3, 96 h, read-out: Inhibition of H^3 Thymidine uptake (IC50 in nM)
Experimental: as §1, §2, §3, §4, §5, §6

Lncap [3] = assay: cells; conditions: Homo sapiens, 96 h, read-out: Inhibition of H^3 Thymidine uptake (IC50 in nM)
Experimental: as §1, §2, §3, §4, §5, §6

D341 [4] = assay: cells; conditions: Homo sapiens, D341, 96 h, read-out: Inhibition of H^3 Thymidine uptake (IC50 in nM)
Experimental: as §1, §2, §3, §4, §5, §6

SK-N-SH [5] = assay: cells; conditions: Homo sapiens, 96 h, read-out: Inhibition of H^3 Thymidine uptake (IC50 in nM)
Experimental: as §1, §2, §3, §4, §5, §6

MCF-7 [6] = assay: cells; conditions: Homo sapiens, MCF7, 96 h, read-out: Inhibition of H^3 Thymidine uptake (IC50 in nM)
Experimental: as §1, §2, §3, §4, §5, §6

LS174T [7] = assay: cells; conditions: Homo sapiens, 96 h, read-out: Inhibition of H^3 Thymidine uptake (IC50 in nM)
Experimental: as §1, §2, §3, §4, §5, §6

A431 [8] = assay: cells; conditions: Homo sapiens, A-431, 96 h, read-out: Inhibition of H^3 Thymidine uptake (IC50 in nM)
Experimental: as §1, §2, §3, §4, §5, §6

SKMEL-2 [9] = assay: cells; conditions: Homo sapiens, SK-MEL-2, 96 h, read-out: Inhibition of H^3 Thymidine uptake (IC50 in nM)
Experimental: as §1, §2, §3, §4, §5, §6

various cell lines = conditions: in vitro; cited from earlier work
SKOV-3 [10] = conditions: read-out: Inhibition of H^3 Thymidine uptake (IC50 in nM); SKOV-3 cells, 96 hours incubation
Experimental: as §1, §2, §3, §4, §5, §6

MCF-7 [11] = conditions: read-out: Inhibition of H^3 Thymidine uptake (IC50 in nM); MCF-7 cells, 96 hours incubation
Experimental: as §1, §2, §3, §4, §5, §6

LS174T [12] = conditions: read-out: Inhibition of H^3 Thymidine uptake (IC50 in nM); LS174T cells, 96 hours incubation
Experimental: as §1, §2, §3, §4, §5, §6

OVCAR-3 [13] = conditions: read-out: Inhibition of H^3 Thymidine uptake (IC50 in nM); OVCAR-3 cells, 96 hours incubation
Experimental: as §1, §2, §3, §4, §5, §6

SK-N-SH [14] = conditions: read-out: Inhibition of H^3 Thymidine uptake (IC50 in nM); SK-N-SH cells, 96 hours incubation
Experimental: as §1, §2, §3, §4, §5, §6

A431 [15] = conditions: read-out: Inhibition of H^3 Thymidine uptake (IC50 in nM); A431 cells, 96 hours incubation
Experimental: as §1, §2, §3, §4, §5, §6

Lncap [16] = conditions: read-out: Inhibition of H^3 Thymidine uptake (IC50 in nM); Lncap cells, 96 hours incubation
Experimental: as §1, §2, §3, §4, §5, §6

SKMEL-2 [17] = conditions: read-out: Inhibition of H^3 Thymidine uptake (IC50 in nM); SKMEL-2 cells, 96 hours incubation
Experimental: as §1, §2, §3, §4, §5, §6

D341 [18] = conditions: read-out: Inhibition of H^3 Thymidine uptake (IC50 in nM); D341 cells, 96 hours incubation
Experimental: as §1, §2, §3, §4, §5, §6

Compound	IC50 (SKOV-3 [1]) [nM]	IC50 (OVCAR-3 [2]) [nM]	IC50 (Lncap [3]) [nM]	IC50 (D341 [4]) [nM]	IC50 (SK-N-SH [5]) [nM]	IC50 (MCF-7 [6]) [nM]	IC50 (LS174T [7]) [nM]	IC50 (A431 [8]) [nM]	IC50 (SKMEL-2 [9]) [nM]	IC50 (various cell lines) [µM]	IC50 (SKOV-3 [10]) [nM]	IC50 (MCF-7 [11]) [nM]	IC50 (LS174T [12]) [nM]	IC50 (OVCAR-3 [13]) [nM]	IC50 (SK-N-SH [14]) [nM]	IC50 (A431 [15]) [nM]	IC50 (Lncap [16]) [nM]	IC50 (SKMEL-2 [17]) [nM]	IC50 (D341 [18]) [nM]
COc1cccc2c1C(=O)c1c(O)c3c(c(O)c1C2=O)C[C@@](O)(C(=O)CO)C[C@@H]3O[C@H]1C[C@H](N)[C@H](O)[C@H](C)O1 [Adriamycin, Adriamycin Hydrochloride]	130	4.77	2.54	7.02	0.896	3.11	4.04	50.4	1.93	–	–	–	–	–	–	–	–	–	–
CO[C@H]1C[C@@H]2CC[C@@H](C)[C@@](O)(O2)C(=O)C(=O)N2CCCC[C@H]2C(=O)O[C@H]([C@H](C)C[C@@H]2CC[C@@H](OC(=O)C(C)(CO)CO)[C@H](OC)C2)CC(=O)[C@H](C)/C=C(\C)[C@@H](O)[C@@H](OC)C(=O)[C@H](C)C[C@H](C)/C=C/C=C/C=C/1C [CCI-779]	–	–	–	–	–	–	–	–	–	< 0.01	–	–	–	–	–	–	–	–	–
CO[C@H]1C[C@@H]2CC[C@@H](C)[C@@](O)(O2)C(=O)C(=O)N2CCCC[C@H]2C(=O)O[C@H]([C@H](C)C[C@@H]2CC[C@@H](O)[C@H](OC)C2)CC(=O)[C@H](C)/C=C(\C)[C@@H](O)[C@@H](OC)C(=O)[C@H](C)C[C@H](C)/C=C/C=C/C=C/1C [Compound 5, Rapamycin]	0.392	44.5	30.3	1.56	1.33	0.408	980	341	1.12	–	–	–	–	–	–	–	–	–	–
CO[C@H]1C[C@@H]2CC[C@@H](C)[C@@](O)(O2)C(=O)C(=O)N2CCCC[C@H]2C(=O)O[C@H]([C@H](C)C[C@@H]2CC[C@@H](OC(=O)NCC(O)CO)[C@H](OC)C2)CC(=O)[C@H](C)/C=C(\C)[C@@H](O)[C@@H](OC)C(=O)[C@H](C)C[C@H](C)/C=C/C=C/C=C/1C (stereo partly shown) [Compound 7n, Rapamycin-42-O-ester-3-amino-1,2-propanediol]	–	–	–	–	–	–	–	–	–	–	7.96	2.53	55100	71.9	7.27	314	42.7	11.7	14.7
CO[C@H]1C[C@@H]2CC[C@@H](C)[C@@](O)(O2)C(=O)C(=O)N2CCCC[C@H]2C(=O)O[C@H]([C@H](C)C[C@@H]2CC[C@@H](OC(=O)NC(CO)CO)[C@H](OC)C2)CC(=O)[C@H](C)/C=C(\C)[C@@H](O)[C@@H](OC)C(=O)[C@H](C)C[C@H](C)/C=C/C=C/C=C/1C [Compound 7o, Rapamycin-42-O-ester-2-amino-1,3-propanediol]	–	–	–	–	–	–	–	–	–	–	27.4	2.58	1030	80.7	5.84	150	39.6	48.3	36.2
CO[C@H]1C[C@@H]2CC[C@@H](C)[C@@](O)(O2)C(=O)C(=O)N2CCCC[C@H]2C(=O)O[C@H]([C@H](C)C[C@@H]2CC[C@@H](OC(=O)NC(C)(CO)CO)[C@H](OC)C2)CC(=O)[C@H](C)/C=C(\C)[C@@H](O)[C@@H](OC)C(=O)[C@H](C)C[C@H](C)/C=C/C=C/C=C/1C [Compound 7p, Rapamycin-42-O-ester-2-amino-2-methyl-1,3-propanediol]	–	–	–	–	–	–	–	–	–	–	8.8	1.17	2310	79.3	7.19	254	7.12	17.7	10.2
CO[C@H]1C[C@@H]2CC[C@@H](C)[C@@](O)(O2)C(=O)C(=O)N2CCCC[C@H]2C(=O)O[C@H]([C@H](C)C[C@@H]2CC[C@@H](OC(=O)N[C@@H](CO)[C@H](C)O)[C@H](OC)C2)CC(=O)[C@H](C)/C=C(\C)[C@@H](O)[C@@H](OC)C(=O)[C@H](C)C[C@H](C)/C=C/C=C/C=C/1C [Compound 7q, Rapamycin-42-O-ester-(2S,3S)-2-amino-1,3-butanediol]	–	–	–	–	–	–	–	–	–	–	6.35	1.29	1630	56.5	5.25	313	17.4	9.15	25.2
CO[C@H]1C[C@@H]2CC[C@@H](C)[C@@](O)(O2)C(=O)C(=O)N2CCCC[C@H]2C(=O)O[C@H]([C@H](C)C[C@@H]2CC[C@@H](OC(=O)N[C@H](CO)[C@@H](C)O)[C@H](OC)C2)CC(=O)[C@H](C)/C=C(\C)[C@@H](O)[C@@H](OC)C(=O)[C@H](C)C[C@H](C)/C=C/C=C/C=C/1C [Compound 7r, Rapamycin-42-O-ester-(2R,3R)-2-amino-1,3-butanediol]	–	–	–	–	–	–	–	–	–	–	6.44	1.86	1410	47.2	4.84	191	21.8	8.32	5.5
COC1CC2CCC(C)C(O)(O2)C(=O)C(=O)N2CCCCC2C(=O)OC(C(C)CC2CCC(OC(=O)NC(CO)CC(C)C)C(OC)C2)CC(=O)C(C)C=C(C)C(O)C(OC)C(=O)C(C)CC(C)C=CC=CC=C1C [Compound 7t, Rapamycin-42-O-ester-(S)-(+)-2-amino-4-methyl pentanol]	–	–	–	–	–	–	–	–	–	–	64.1	53.3	24000	367	99.3	278	202	73.2	61.2
CO[C@H]1C[C@@H]2CC[C@@H](C)[C@@](O)(O2)C(=O)C(=O)N2CCCC[C@H]2C(=O)O[C@H]([C@H](C)C[C@@H]2CC[C@@H](OC(=O)NC(CO)(CO)CO)[C@H](OC)C2)CC(=O)[C@H](C)/C=C(\C)[C@@H](O)[C@@H](OC)C(=O)[C@H](C)C[C@H](C)/C=C/C=C/C=C/1C [Compound 7u, Rapamycin-42-O-ester-Tris(hydroxymethyl)amino methane]	–	–	–	–	–	–	–	–	–	–	8.08	1.54	1590	56.6	6.4	282	14	6.15	20.8
Rapamycin-42-O-ester-(R) (+)-2-amino-3-phenyl-1-propanol [Compound 7k]	–	–	–	–	–	–	–	–	–	–	66	15.9	1380	296	71.3	550	146	109	259

Reference: US7659244B2, “Rapamycin peptides conjugates: synthesis and uses thereof” (Quest Pharmatech, Inc., priority 2004, dated 2010)
